# According to ChEMBL document CHEMBL4800722, “Data for DCP probe BI 605906” (2021):
# Legend:
# [1] = target: Ephrin type-B receptor 4 (Homo sapiens) (UniProt P54760); conditions: Compound concentration 1.0 uM
# [2] = target: Casein kinase I isoform epsilon (Homo sapiens) (UniProt P49674); test: CSNK1E Invitrogen Lab (UK) kinase screen (BI); conditions: Compound concentration 1.0 uM
# [3] = target: Myosin-IIIa (Homo sapiens) (UniProt Q8NEV4); conditions: Compound concentration 1.0 uM
# [4] = target: Cyclin-dependent kinase 13/Cyclin-K (Homo sapiens) (UniProt Q14004+O75909); test: CDK13/CYCLIN K Invitrogen Lab (UK) kinase screen (BI); type: protein-complex assay; conditions: Compound concentration 1.0 uM
# [5] = target: Phosphatidylinositol 4-kinase beta (Homo sapiens) (UniProt Q9UBF8); conditions: Compound concentration 1.0 uM
# [6] = target: Phospholipase A2 (Sus scrofa) (UniProt A0A8D1VEY7); conditions: Compound concentration 10.0 uM
# [7] = target: Adrenergic receptor alpha-2 (Rattus norvegicus) (UniProt P22086+P19328+P22909); test: ALPHA2/R Eurofins SafetyScreen44 (BI); type: protein assay
# [8] = target: Neutrophil elastase (Homo sapiens) (UniProt P08246); conditions: Compound concentration 10.0 uM
# [9] = target: Mitogen-activated protein kinase 11 (Homo sapiens) (UniProt Q15759); conditions: Compound concentration 1.0 uM
# [10] = target: CDC7/DBF4 (Cell division cycle 7-related protein kinase/Activator of S phase kinase) (Homo sapiens) (UniProt Q9UBU7+O00311); test: CDC7/DBF4 Invitrogen Lab (UK) kinase screen (BI); type: protein-complex assay; conditions: Compound concentration 1.0 uM
# [11] = target: Muscarinic acetylcholine receptor M3 (Homo sapiens) (UniProt P20309); conditions: Compound concentration 10.0 uM
# [12] = target: Protein kinase C beta type (Homo sapiens) (UniProt P05771); conditions: Compound concentration 1.0 uM
# [13] = target: Vasopressin V1a receptor (Homo sapiens) (UniProt P37288)
# [14] = target: Serine/threonine-protein kinase greatwall (Homo sapiens) (UniProt Q96GX5); test: MASTL Invitrogen Lab (UK) kinase screen (BI); conditions: Compound concentration 1.0 uM
# [15] = target: Polyunsaturated fatty acid 5-lipoxygenase (Homo sapiens) (UniProt P09917); test: 5LO Eurofins SafetyScreen44 (BI); conditions: Compound concentration 10.0 uM
# [16] = target: Serine/threonine-protein kinase D3 (Homo sapiens) (UniProt O94806); conditions: Compound concentration 1.0 uM
# [17] = target: Serine/threonine-protein kinase pim-3 (Homo sapiens) (UniProt Q86V86); test: PIM3 Invitrogen Lab (UK) kinase screen (BI); conditions: Compound concentration 1.0 uM
# [18] = target: Voltage-dependent N-type calcium channel subunit alpha-1B (Rattus norvegicus) (UniProt Q02294); test: CA+/N/RA Eurofins SafetyScreen44 (BI); conditions: Compound concentration 10.0 uM
# [19] = target: Serine/threonine-protein kinase 26 (Homo sapiens) (UniProt Q9P289); conditions: Compound concentration 1.0 uM
# [20] = target: Myosin light chain kinase, smooth muscle (Homo sapiens) (UniProt Q15746); test: SMMLCK DUNDEE kinase screen (BI); conditions: Compound concentration 10.0 uM
# [21] = target: Serine/threonine-protein kinase Chk2 (Homo sapiens) (UniProt O96017); test: CHEK2 Invitrogen Lab (UK) kinase screen (BI); conditions: Compound concentration 1.0 uM
# [22] = target: Mu-type opioid receptor (Homo sapiens) (UniProt P35372); conditions: Compound concentration 10.0 uM
# [23] = target: Vascular endothelial growth factor receptor 1 (Homo sapiens) (UniProt P17948); conditions: Compound concentration 1.0 uM
# [24] = target: Voltage-dependent L-type calcium channel subunit alpha-1C (CA+/DILSI/RA) (Rattus norvegicus, UniProt P22002); test: CA+/DILSI/RA Eurofins SafetyScreen44 (BI); conditions: read-out: % Ctrl
# [25] = target: Tyrosine-protein kinase HCK (Homo sapiens) (UniProt P08631); conditions: Compound concentration 1.0 uM
# [26] = target: Testis-specific serine/threonine-protein kinase 2 (Homo sapiens) (UniProt Q96PF2); conditions: Compound concentration 1.0 uM
# [27] = target: Dual specificity tyrosine-phosphorylation-regulated kinase 4 (Homo sapiens) (UniProt Q9NR20); conditions: Compound concentration 1.0 uM
# [28] = target: RAC-beta serine/threonine-protein kinase (Homo sapiens) (UniProt P31751); conditions: Compound concentration 1.0 uM
# [29] = target: Ephrin type-A receptor 3 (Homo sapiens) (UniProt P29320); test: EPHA3 Invitrogen Lab (UK) kinase screen (BI); conditions: Compound concentration 1.0 uM
# [30] = target: Calpain-1 catalytic subunit (Homo sapiens) (UniProt P07384); conditions: Compound concentration 10.0 uM
# [31] = target: Serine/threonine-protein kinase Sgk2 (Homo sapiens) (UniProt Q9HBY8); conditions: Compound concentration 1.0 uM
# [32] = target: AMP-activated protein kinase alpha-2/beta-1/gamma-3 (Homo sapiens) (UniProt P54646+Q9Y478+Q9UGI9); conditions: Compound concentration 1.0 uM
# [33] = target: PAS domain-containing serine/threonine-protein kinase (Homo sapiens) (UniProt Q96RG2); test: PASK Invitrogen Lab (UK) kinase screen (BI); conditions: Compound concentration 1.0 uM
# [34] = target: Glycogen synthase kinase-3 alpha (Homo sapiens) (UniProt P49840); conditions: Compound concentration 1.0 uM
# [35] = target: Ribosomal protein S6 kinase alpha-1 (Homo sapiens) (UniProt Q15418); conditions: Compound concentration 1.0 uM
# [36] = target: Mitogen-activated protein kinase 8 (Homo sapiens) (UniProt P45983); test: JNK1A1SAPK1C DUNDEE kinase screen (BI); conditions: Compound concentration 10.0 uM
# [37] = target: AMP-activated protein kinase alpha-2/beta-2/gamma-2 (Homo sapiens) (UniProt P54646+O43741+Q9UGJ0); test: AMPK (A2/B2/G2) Invitrogen Lab (UK) kinase screen (BI); type: protein-complex assay; conditions: Compound concentration 1.0 uM
# [38] = target: AMP-activated protein kinase alpha-1/beta-2/gamma-3 (Homo sapiens) (UniProt O43741+Q13131+Q9UGI9); conditions: Compound concentration 1.0 uM
# [39] = target: Sodium-dependent dopamine transporter (Homo sapiens, UniProt Q01959); conditions: Compound concentration 10.0 uM
# [40] = target: Cyclin-G-associated kinase (Homo sapiens, UniProt O14976); test: NanoBRET (SGC-FFM) (GAK)
# [41] = target: Tyrosine-protein kinase ABL2 (Homo sapiens) (UniProt P42684); conditions: Compound concentration 1.0 uM
# [42] = target: Mitogen-activated protein kinase 14 (Homo sapiens) (UniProt Q16539); conditions: Compound concentration 1.0 uM
# [43] = Compound concentration 100.0 uM
# Voltage-dependent L-type calcium channel subunit alpha-1C (CA+/DILSI/RA), sequence (P22002 whole entry): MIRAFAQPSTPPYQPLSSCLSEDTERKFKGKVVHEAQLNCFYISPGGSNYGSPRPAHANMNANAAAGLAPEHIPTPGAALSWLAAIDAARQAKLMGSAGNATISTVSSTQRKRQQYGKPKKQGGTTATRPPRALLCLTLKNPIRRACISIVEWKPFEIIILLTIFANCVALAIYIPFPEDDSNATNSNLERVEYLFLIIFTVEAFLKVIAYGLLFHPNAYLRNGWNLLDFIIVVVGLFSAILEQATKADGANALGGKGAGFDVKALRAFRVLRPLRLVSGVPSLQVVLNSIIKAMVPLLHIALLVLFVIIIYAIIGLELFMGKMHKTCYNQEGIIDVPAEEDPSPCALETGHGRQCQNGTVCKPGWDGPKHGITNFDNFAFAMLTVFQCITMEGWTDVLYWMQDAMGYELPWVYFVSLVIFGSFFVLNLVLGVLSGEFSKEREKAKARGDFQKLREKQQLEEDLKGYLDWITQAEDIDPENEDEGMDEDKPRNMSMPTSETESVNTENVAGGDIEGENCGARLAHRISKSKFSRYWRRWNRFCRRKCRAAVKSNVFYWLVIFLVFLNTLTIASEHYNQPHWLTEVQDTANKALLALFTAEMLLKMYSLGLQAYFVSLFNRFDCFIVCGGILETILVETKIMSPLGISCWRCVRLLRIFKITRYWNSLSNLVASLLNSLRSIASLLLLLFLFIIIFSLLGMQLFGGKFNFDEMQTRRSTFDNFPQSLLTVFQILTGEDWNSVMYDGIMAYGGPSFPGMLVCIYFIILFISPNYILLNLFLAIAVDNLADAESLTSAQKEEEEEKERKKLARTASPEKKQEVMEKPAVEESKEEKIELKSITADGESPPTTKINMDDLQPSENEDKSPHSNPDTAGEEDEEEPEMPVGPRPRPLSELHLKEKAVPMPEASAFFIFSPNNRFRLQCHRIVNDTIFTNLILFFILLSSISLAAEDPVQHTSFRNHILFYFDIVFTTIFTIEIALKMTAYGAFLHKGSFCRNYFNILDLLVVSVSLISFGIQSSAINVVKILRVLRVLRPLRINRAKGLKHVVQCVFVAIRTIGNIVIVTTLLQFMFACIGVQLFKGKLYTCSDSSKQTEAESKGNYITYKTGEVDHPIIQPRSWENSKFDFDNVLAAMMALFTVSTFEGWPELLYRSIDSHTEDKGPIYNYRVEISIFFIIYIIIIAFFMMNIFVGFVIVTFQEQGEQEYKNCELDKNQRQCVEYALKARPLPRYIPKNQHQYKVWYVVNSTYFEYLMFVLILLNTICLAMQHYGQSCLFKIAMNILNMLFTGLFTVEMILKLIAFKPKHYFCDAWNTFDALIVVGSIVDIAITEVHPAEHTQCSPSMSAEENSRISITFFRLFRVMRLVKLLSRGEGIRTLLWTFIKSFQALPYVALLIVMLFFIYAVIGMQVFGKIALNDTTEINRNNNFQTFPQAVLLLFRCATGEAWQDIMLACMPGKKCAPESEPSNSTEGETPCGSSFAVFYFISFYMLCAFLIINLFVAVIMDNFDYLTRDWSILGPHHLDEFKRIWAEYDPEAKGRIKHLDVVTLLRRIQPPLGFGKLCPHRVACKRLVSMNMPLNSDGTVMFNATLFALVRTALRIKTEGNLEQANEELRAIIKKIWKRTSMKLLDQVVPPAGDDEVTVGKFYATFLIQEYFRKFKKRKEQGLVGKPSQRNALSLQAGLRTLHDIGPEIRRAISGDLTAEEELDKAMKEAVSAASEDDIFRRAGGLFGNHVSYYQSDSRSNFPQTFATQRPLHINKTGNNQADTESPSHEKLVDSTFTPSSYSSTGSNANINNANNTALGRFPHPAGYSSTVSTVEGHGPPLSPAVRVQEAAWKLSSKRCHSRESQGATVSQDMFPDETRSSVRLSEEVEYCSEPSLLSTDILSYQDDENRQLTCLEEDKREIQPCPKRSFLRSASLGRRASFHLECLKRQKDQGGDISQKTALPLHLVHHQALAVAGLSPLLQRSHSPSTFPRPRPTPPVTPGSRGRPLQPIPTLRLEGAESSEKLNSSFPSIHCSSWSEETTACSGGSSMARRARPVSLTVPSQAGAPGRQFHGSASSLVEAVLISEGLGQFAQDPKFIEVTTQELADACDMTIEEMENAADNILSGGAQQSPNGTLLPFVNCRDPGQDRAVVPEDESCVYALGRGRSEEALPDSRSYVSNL
# Vasopressin V1a receptor (Homo sapiens), sequence (P37288 whole entry, looked up): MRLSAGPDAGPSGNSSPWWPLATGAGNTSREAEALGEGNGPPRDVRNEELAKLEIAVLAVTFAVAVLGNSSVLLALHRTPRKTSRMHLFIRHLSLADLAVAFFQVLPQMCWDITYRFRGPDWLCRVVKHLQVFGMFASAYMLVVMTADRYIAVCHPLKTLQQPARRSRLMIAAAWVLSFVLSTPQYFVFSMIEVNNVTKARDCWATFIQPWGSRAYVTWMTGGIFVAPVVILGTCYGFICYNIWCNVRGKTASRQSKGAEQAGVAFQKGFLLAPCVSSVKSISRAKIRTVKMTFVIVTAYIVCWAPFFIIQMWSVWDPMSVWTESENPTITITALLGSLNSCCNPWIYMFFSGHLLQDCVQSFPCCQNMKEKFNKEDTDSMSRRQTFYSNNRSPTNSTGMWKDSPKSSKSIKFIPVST
# Tyrosine-protein kinase ABL2 (Homo sapiens), sequence (P42684 whole entry): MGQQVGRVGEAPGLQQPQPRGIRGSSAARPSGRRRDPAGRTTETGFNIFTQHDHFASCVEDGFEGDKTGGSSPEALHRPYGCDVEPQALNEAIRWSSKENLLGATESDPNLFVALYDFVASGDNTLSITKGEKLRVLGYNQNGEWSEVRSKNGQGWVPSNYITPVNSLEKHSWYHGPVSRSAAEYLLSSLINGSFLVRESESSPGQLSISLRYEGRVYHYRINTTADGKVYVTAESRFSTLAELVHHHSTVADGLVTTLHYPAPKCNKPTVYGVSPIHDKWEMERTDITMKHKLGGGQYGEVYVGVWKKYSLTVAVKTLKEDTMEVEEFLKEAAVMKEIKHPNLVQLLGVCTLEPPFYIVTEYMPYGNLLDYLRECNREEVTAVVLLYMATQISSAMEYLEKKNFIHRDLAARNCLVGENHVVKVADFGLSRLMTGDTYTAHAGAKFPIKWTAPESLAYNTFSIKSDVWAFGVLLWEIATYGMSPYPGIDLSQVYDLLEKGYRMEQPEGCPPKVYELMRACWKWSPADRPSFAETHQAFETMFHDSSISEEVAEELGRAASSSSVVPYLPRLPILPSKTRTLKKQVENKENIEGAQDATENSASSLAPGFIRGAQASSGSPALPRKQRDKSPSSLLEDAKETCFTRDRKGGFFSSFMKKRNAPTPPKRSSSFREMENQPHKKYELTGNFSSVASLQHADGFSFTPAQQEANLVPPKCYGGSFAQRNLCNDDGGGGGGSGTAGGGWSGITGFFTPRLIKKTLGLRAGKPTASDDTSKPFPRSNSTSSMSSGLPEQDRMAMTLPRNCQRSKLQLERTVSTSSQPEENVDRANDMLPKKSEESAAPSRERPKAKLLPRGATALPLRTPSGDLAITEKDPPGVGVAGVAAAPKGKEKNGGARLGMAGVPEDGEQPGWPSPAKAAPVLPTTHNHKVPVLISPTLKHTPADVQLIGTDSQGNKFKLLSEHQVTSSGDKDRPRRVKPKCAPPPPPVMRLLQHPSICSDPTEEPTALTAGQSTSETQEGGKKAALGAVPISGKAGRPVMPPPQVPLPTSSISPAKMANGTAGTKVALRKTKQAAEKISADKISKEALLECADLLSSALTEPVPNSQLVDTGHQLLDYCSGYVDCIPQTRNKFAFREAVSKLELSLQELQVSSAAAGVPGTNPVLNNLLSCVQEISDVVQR
# Vascular endothelial growth factor receptor 1 (Homo sapiens), sequence (P17948 whole entry): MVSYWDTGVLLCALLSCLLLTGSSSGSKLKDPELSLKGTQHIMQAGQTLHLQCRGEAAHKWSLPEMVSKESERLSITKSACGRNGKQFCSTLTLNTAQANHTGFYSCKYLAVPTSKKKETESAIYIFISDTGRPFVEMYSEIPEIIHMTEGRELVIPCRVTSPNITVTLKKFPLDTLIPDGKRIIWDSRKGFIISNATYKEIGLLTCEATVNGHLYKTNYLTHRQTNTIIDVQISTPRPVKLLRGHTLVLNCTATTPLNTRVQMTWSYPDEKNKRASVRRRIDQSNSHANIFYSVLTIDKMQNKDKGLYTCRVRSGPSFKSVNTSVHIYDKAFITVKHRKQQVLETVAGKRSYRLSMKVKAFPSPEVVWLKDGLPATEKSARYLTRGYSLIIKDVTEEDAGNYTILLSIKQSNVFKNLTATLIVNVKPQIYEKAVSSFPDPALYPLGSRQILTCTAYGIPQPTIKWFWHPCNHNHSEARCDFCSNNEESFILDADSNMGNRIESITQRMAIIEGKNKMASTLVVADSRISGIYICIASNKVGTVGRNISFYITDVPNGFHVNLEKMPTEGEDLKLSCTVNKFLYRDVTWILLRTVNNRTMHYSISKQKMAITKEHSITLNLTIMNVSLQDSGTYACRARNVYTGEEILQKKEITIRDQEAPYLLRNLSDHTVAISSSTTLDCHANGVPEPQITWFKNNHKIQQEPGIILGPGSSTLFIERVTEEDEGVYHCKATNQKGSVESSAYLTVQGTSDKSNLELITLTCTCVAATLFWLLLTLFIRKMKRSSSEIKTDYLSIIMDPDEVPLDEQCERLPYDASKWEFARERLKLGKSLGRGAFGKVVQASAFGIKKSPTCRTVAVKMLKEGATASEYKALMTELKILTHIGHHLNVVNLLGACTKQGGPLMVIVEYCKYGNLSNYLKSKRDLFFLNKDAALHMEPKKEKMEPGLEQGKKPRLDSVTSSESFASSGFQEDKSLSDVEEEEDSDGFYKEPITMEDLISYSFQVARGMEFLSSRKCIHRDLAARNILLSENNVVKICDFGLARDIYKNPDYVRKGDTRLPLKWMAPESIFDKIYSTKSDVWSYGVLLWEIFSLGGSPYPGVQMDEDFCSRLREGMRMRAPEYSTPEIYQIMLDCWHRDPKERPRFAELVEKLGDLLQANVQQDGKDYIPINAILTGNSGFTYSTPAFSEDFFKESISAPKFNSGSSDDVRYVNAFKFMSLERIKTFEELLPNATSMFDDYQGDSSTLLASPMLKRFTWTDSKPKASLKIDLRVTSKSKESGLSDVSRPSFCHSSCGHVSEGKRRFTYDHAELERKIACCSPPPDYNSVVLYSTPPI
compound,measurement,setting,value
CCC(F)(F)c1cc(N2CCC(S(C)(=O)=O)CC2)nc2sc(C(N)=O)c(N)c12 [BI-605906],residual activity,[1],90%
same,residual activity,[2],75%
same,residual activity,[3],92%
same,residual activity,[4],85%
same,residual activity,[5],92%
same,residual activity,[6],96%
same,residual activity,[7]; Compound concentration 10.0 uM,103%
same,residual activity,[7]; [43],102%
same,residual activity,[8],98%
same,residual activity,[9],98%
same,residual activity,[10],88%
same,inhibition,[11],21.1%
same,residual activity,[12],99%
same,residual activity,[13]; Compound concentration 10.0 uM,99%
same,residual activity,[13]; [43],89%
same,residual activity,[14],85%
same,residual activity,[15],53%
same,residual activity,[16],91%
same,residual activity,[17],103%
same,residual activity,[18],86%
same,residual activity,[19],109%
same,residual activity,[20],57.7%
same,residual activity,[21],79%
same,inhibition,[22],5.18%
same,residual activity,[23],100%
same,activity at 1 µM,[24]; compound concentration 1 uM,99% (not active)
same,activity at 3 µM,[24]; compound concentration 3 uM,111% (not active)
same,activity at 10 µM,[24]; compound concentration 10 uM,101% (not active)
same,activity at 30 µM,[24]; compound concentration 30 uM,87% (not active)
same,activity at 100 µM,[24]; compound concentration 100 uM,45%
same,residual activity,[25],90%
same,residual activity,[26],91%
same,residual activity,[27],97%
same,residual activity,[28],95%
same,residual activity,[29],85%
same,residual activity,[30],97%
same,residual activity,[31],99%
same,residual activity,[32],89%
same,residual activity,[33],106%
same,residual activity,[34],99%
same,residual activity,[35],94%
same,residual activity,[36],93.8%
same,residual activity,[37],88%
same,residual activity,[38],91%
same,inhibition,[39],2.35%
same,IC50,[40],6.5 µM (not active)
same,residual activity,[41],91%
same,residual activity,[42],89%
